Experiments:
[1] = cited from earlier work
[2] = tested on: 5-6 leaf tomato plants (var. Rutgers); test: Tomato epinasty test (Cerone/ethephon challenge); type: in vivo; settings: average of 8 plants
[3] = tested on: 5-6 leaf tomato plants (var. Rutgers); test: Tomato epinasty test (Cerone/ethephon challenge); type: in vivo; settings: 200 l/ha, average of 8 plants
Procedure: Bioassay test material: 5-6 leaf tomato plants (var. Rutgers), 8 reps/treatment.
The first column of table 1 provides a summary of change in angle of the 3rd leaf petiole at 24 hours after application of Cerone (ethephon). There are two sets of data, one for those challenged with Cerone at 4 hours after 1-MCP formulation application and a second set for plants challenged with Cerone at 24 hrs after 1-MCP formulation application. Data are the averages of 8 replicate plants
Procedures Used for Epinasty Test:
1-MCP formulation and rates: 1-MCP in the form of an α-cyclodextrin molecularly encapsulated powder dispersed in an aqueous MgSO4 solution
Standard foliar spray at 200 l/ha and 0.035% v/v kinetic silicon adjuvant 0, 10 and 20 g ai/ha
Application rate 500 g ai/ha at 400 l/ha application volume
Application at 4 and 24 HAA of Invinsa
Angle of 3rd petiole to plants stem measured prior to 1-MCP application and again at 24 HAT Final data expressed as average change in 3rd petiole angle

[4] = tested on: Wheat plants, variety ARINA; test: Effect of 1-MCP on stressed wheat plants grown in pouches (drought stress); type: in vivo; settings: 200 ppm in the pouch water at day 8; 5 days without watering at 26° C.; FIG. 1
Procedure: FIG. 1 illustrates wheat plants grown in pouches. On the right-hand side plants treated with 1-MCP and on the left-hand side non treated check plants.
10 mL of the mixture are added per pouch with a pipette.
20 to 25 Wheat kernels from the variety ARINA were sown in a plastic bag (pouch) with an absorbent paper, watered and grown under optimal conditions in a climate chamber for 8 days. At day 8 the 1-MCP in the form of an α-cyclodextrin molecularly encapsulated powder was applied at a 200 ppm rate to the water in the pouch. After application the plants were not watered anymore, but placed in a warm environment at 26° C. After 5 days without watering the differences of treated vs. untreated were evaluated visually (FIG. 1).

## CC1=CC1 [1-MCP, 1-methylcyclopropene]
[1]
  water-solubility: 137 mg I−1
[2]; 1 g ai/ha chemigation, Cerone applied 4 HAA 1-MCP
  Average change in angle of third petiole: 60
[2]; 1 g ai/ha chemigation, Cerone applied 24 HAA 1-MCP
  Average change in angle of third petiole: 78
[2]; 10 g ai/ha chemigation, Cerone applied 4 HAA 1-MCP
  Average change in angle of third petiole: 20
[2]; 10 g ai/ha chemigation, Cerone applied 24 HAA 1-MCP
  Average change in angle of third petiole: 48
[2]; 20 g ai/ha chemigation, Cerone applied 4 HAA 1-MCP
  Average change in angle of third petiole: −9
[2]; 20 g ai/ha chemigation, Cerone applied 24 HAA 1-MCP
  Average change in angle of third petiole: 41
[2]; >20 g ai/ha chemigation (incorrect pump calibration), Cerone applied 4 HAA 1-MCP
  Average change in angle of third petiole: −4
[2]; >20 g ai/ha chemigation (incorrect pump calibration), Cerone applied 24 HAA 1-MCP
  Average change in angle of third petiole: 18
[3]; 10 g ai/ha foliar spray, Cerone applied 4 HAA 1-MCP
  Average change in angle of third petiole: 71
[3]; 10 g ai/ha foliar spray, Cerone applied 24 HAA 1-MCP
  Average change in angle of third petiole: 82
[3]; 20 g ai/ha foliar spray, Cerone applied 4 HAA 1-MCP
  Average change in angle of third petiole: 40
[3]; 20 g ai/ha foliar spray, Cerone applied 24 HAA 1-MCP
  Average change in angle of third petiole: 86
[4]
  drought tolerance of treated vs. untreated plants, evaluated visually: greater drought tolerance than control plants
